Data reported in PubChem BioAssay (NCI).
Where “and” joins values, the source holds several entries; their conditions need not be identical. Identical values can stand only once.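 Protocol summary: plate cells (96-well), add compound at 5 concentrations, incubate 48 h, interpolate endpoints linearly. GI50: concentration for 50% inhibition of growth. At the TGI there is no net growth.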

What follows are compounds tested on DU-145 prostate (assay: inhibition of tumour cell growth, NCI panel, 48 h).

SMILES | GI50 | TGI
O=C1/C(=C(/c2ccccc2)N2CCOCC2)Cc2ccccc21 | 0.948 µM | 2.29 µM
CC1=CC(=O)C=CC1=O | 17.3 µM and 17.8 µM | 31 µM and 32.4 µM
CCCC(CCC)NCC(O)c1cc(-c2ccc(C(F)(F)F)cc2)nc(C(F)(F)F)c1 (stereo unspecified) | 1.94 µM | 3.39 µM
Cc1cc(C)c(NC(=O)c2sc3nc4c(cc3c2N)C(=O)CCC4)c(C)c1 | 3.36 µM | > 100 µM
CN(C)CCNc1ccc(CO)c2oc3ccc(O)cc3c(=O)c12 |  | 53.9 µM
Cc1ccc(NC(=O)c2cccc(C(C)(C)C#N)c2)cc1Nc1ccc2ncn(C)c(=O)c2c1 | 5.66 µM | > 100 µM
Cc1cc2ncnn2cc1Nc1ncc2c(n1)n(C1CCOCC1)c(=O)n2C | 6.92 µM | > 100 µM
Cc1ccc(N=C/C=C(\Nc2ccc(C)cc2)c2ccc(Cl)cc2)cc1 | 15.6 µM | 38.4 µM
COc1ccc(C(=O)c2cc(C)c(OC)c(C)c2)c(OC)c1O | 0.0369 µM | > 100 µM
COCC[C@H]1CCC/C=C/[C@@H]2C[C@H](O)C[C@H]2[C@H](O)/C=C/C(=O)O1 | 0.445 µM | > 100 µM
Nc1ccccc1C#C/C=C\C#Cc1ccccc1N | 26.8 µM | > 100 µM
COC(=O)Nc1nc2ccc(C3(c4ccc(F)cc4)OCCO3)cc2[nH]1 | 0.363 µM | > 100 µM
O=C(Nc1n[nH]c2cc(-c3ccccc3)ccc12)C1CC1 | 9.28 µM | > 25 µM

What follows are compounds tested on BT-549 breast (assay: inhibition of tumour cell growth, NCI panel, 48 h).

SMILES | GI50 | TGI
CC1(C)C(=O)/C(=C\c2cccnc2)C[C@]2(C)[C@H]3CC[C@@H]4[C@H]5[C@H](C(=O)/C=C/c6cccnc6)CC[C@]5(C(=O)O)CC[C@@]4(C)[C@]3(C)CC[C@@H]12 | 1.95 µM | 4.41 µM
COc1cc2ncnc(-n3ncc4cc(NC(=O)Nc5ccccc5)ccc43)c2cc1OC | 1.55 µM | 12 µM
COc1ccc(C(=O)c2cc(OC)c(OC)c(OC)c2)cc1/C=C/C(=O)c1ccc(F)cc1 | 3.27 µM | 13.1 µM
OCC1OC(n2cnc3c2NC=NC[C@H]3O)C(Cl)C1O (stereo partly specified) |  | > 100 µM
COc1ccc(C2=C(Cl)c3cc(OC)c(OC)cc3C2Cl)cc1 (stereo unspecified) |  | 15.6 µM
COc1ccc(-c2[nH]c3ccc(OC)cc3c2/C=C(\C#N)S(=O)(=O)c2ccccc2)cc1 | 4.51 µM | > 100 µM
O=c1cc(NCC(O)CN2CCCC2)n(Cc2ccccc2)c(=O)n1Cc1ccccc1 (stereo unspecified) | 61.6 µM | > 100 µM
c1ccc(Sc2ccc(Cc3nc4cc5ccccc5cc4[nH]3)cc2)cc1 | 16.4 µM | > 84.9 µM
CCc1nc2cc(F)c(/C=C/C(=O)NO)cc2c(=O)n1CCc1ccccc1 | 0.377 µM | 12.6 µM
COc1cc(OC)c(C(=O)/C=C/c2cccc(C(F)(F)F)c2)c(OC)c1 | 1.08 µM | 2.84 µM
C/C(=N\Nc1ccc(Cl)cn1)c1ccc2ccccc2n1 | 2.62 µM | > 100 µM
CC1=C(/C=C/Cl)CC(Cl)C(C)(Cl)C1 (stereo unspecified) |  | > 100 µM
CN1CCc2nc(N)nc(-c3nc(N)nc4c3CN(C)CC4)c2C1 |  | > 100 µM
COc1c2c(cc3c1OCO3)[C@]13C=C[C@H](OC)C[C@H]1N(C2)CC3O (stereo partly specified) |  | > 100 µM
C=C1C(=O)O[C@H]2[C@H]1CC/C(COC(=O)NCCCCNC(=O)OC/C1=C/CC[C@@]3(C)O[C@H]3[C@H]3OC(=O)C(=C)[C@@H]3CC1)=C\CC[C@@]1(C)O[C@@H]21 | 1.6 µM | 3.63 µM
COc1ccc(C[N+](C)(C)N)cc1OC | > 100 µM | > 100 µM
COc1ccc(-c2cc(-c3cc(C)cc(Br)c3O)no2)cc1 |  | 57.1 µM
COc1ccc(-c2nc3ccccn3c2/C=C/C(=O)c2cc(OC)c(OC)c(OC)c2)cc1OC | 0.899 µM | 3.2 µM
COc1c(C(=O)/C=C/c2ccccc2)c(O)cc2occc12 | 7.72 µM | 27.8 µM
CC(C)c1c(O)c(O)c2c(c1O)C(=O)C(O)=C1C(C)(C)CCC[C@@]12C |  | 13 µM
NS(=O)(=O)c1ccc(-c2ccc3c(NC(=O)C4CC4)n[nH]c3c2)cc1 | > 25 µM | > 25 µM

SMILES | GI50 | TGI
C=CCCCCC/C=C\[C@@H](O)C#CC#C/C=C/CO | 49.9 µM | > 100 µM
N#Cc1cc(-c2cc3ccccc3o2)oc1N | 3.58 µM | 14 µM
Cc1cc(C(=O)Nc2ccc3cc(CN4CCOCC4)ccc3n2)c(C)n1-c1ccccc1 | 1.17 µM | 5.84 µM
O=S(=O)(c1ccc(NC(=S)NC23CC4CC(CC(C4)C2)C3)cc1)N1CCCCC1 | 3 µM | 9.4 µM
Cc1cc(NC(=S)SCc2ccc(F)cc2)c([N+](=O)[O-])cc1C |  | 59.1 µM
COc1ccc(C(=O)c2cc(C)c(OC)c(C)c2)cc1OC(=O)CCl | < 0.01 µM | 40.5 µM
NC(=O)c1cc(Cl)ccc1NC(=O)/C=C/c1ccccc1 | 4.66 µM | > 100 µM
O=C1/C(=C(/c2ccccc2)N2CCOCC2)Cc2ccccc21 | 1.26 µM | 3.2 µM
CC1=CC(=O)C=CC1=O | 16.2 µM and 14.9 µM | 40 µM and 28.3 µM
CC12OC(C(=O)C13CC3)C1C(=O)c3ccc4c(ccc5ccccc54)c3C(=O)C12 (stereo unspecified) | 29.6 µM | 55.9 µM
Cc1cc(C)c(NC(=O)c2sc3nc4c(cc3c2N)C(=O)CCC4)c(C)c1 | 7.29 µM | > 35.4 µM
CN(C)CCNc1ccc(CO)c2oc3ccc(O)cc3c(=O)c12 |  | 28.4 µM
Cc1ccc(NC(=O)c2cccc(C(C)(C)C#N)c2)cc1Nc1ccc2ncn(C)c(=O)c2c1 | 5.17 µM | > 100 µM
Cc1cc2ncnn2cc1Nc1ncc2c(n1)n(C1CCOCC1)c(=O)n2C | 2.83 µM | 32.2 µM
Cc1ccc(N=C/C=C(\Nc2ccc(C)cc2)c2ccc(Cl)cc2)cc1 | 11.2 µM | 29.2 µM
COc1ccc(C(=O)c2cc(C)c(OC)c(C)c2)c(OC)c1O | 0.0272 µM | > 62 µM
COCC[C@H]1CCC/C=C/[C@@H]2C[C@H](O)C[C@H]2[C@H](O)/C=C/C(=O)O1 | 0.132 µM | > 90.9 µM
Nc1ccccc1C#C/C=C\C#Cc1ccccc1N | 11.5 µM | 41.2 µM
COC(=O)Nc1nc2ccc(C3(c4ccc(F)cc4)OCCO3)cc2[nH]1 | 2.77 µM | > 100 µM
O=C(Nc1n[nH]c2cc(-c3ccccc3)ccc12)C1CC1 | 15.5 µM | > 25 µM

The compounds below were run on T-47D breast (assay: inhibition of tumour cell growth, NCI panel, 48 h).

SMILES | GI50 | TGI
CC1(C)C(=O)/C(=C\c2cccnc2)C[C@]2(C)[C@H]3CC[C@@H]4[C@H]5[C@H](C(=O)/C=C/c6cccnc6)CC[C@]5(C(=O)O)CC[C@@]4(C)[C@]3(C)CC[C@@H]12 | 3.75 µM | 24.6 µM
COc1cc2ncnc(-n3ncc4cc(NC(=O)Nc5ccccc5)ccc43)c2cc1OC | 0.183 µM | 1.37 µM
COc1ccc(C(=O)c2cc(OC)c(OC)c(OC)c2)cc1/C=C/C(=O)c1ccc(F)cc1 | 3.54 µM | 27.8 µM
OCC1OC(n2cnc3c2NC=NC[C@H]3O)C(Cl)C1O (stereo partly specified) |  | > 100 µM
COc1ccc(C2=C(Cl)c3cc(OC)c(OC)cc3C2Cl)cc1 (stereo unspecified) |  | 35.1 µM
COc1ccc(-c2[nH]c3ccc(OC)cc3c2/C=C(\C#N)S(=O)(=O)c2ccccc2)cc1 | 0.901 µM | 12.1 µM
O=c1cc(NCC(O)CN2CCCC2)n(Cc2ccccc2)c(=O)n1Cc1ccccc1 (stereo unspecified) | 52.4 µM | > 100 µM
c1ccc(Sc2ccc(Cc3nc4cc5ccccc5cc4[nH]3)cc2)cc1 | 5.2 µM | 26.2 µM
CCc1nc2cc(F)c(/C=C/C(=O)NO)cc2c(=O)n1CCc1ccccc1 | 0.22 µM | 0.853 µM
COc1cc(OC)c(C(=O)/C=C/c2cccc(C(F)(F)F)c2)c(OC)c1 | 1.61 µM | 9.43 µM
C/C(=N\Nc1ccc(Cl)cn1)c1ccc2ccccc2n1 | 3.48 µM | 68.4 µM
CC1=C(/C=C/Cl)CC(Cl)C(C)(Cl)C1 (stereo unspecified) |  | > 100 µM
COc1cc2c(cc1OCCCCC(=O)Nc1cc3c4ccccc4ccc3c3ccccc13)N=C[C@@H]1CCCN1C2=O | 11.1 µM | > 100 µM
CN1CCc2nc(N)nc(-c3nc(N)nc4c3CN(C)CC4)c2C1 |  | > 100 µM
COc1c2c(cc3c1OCO3)[C@]13C=C[C@H](OC)C[C@H]1N(C2)CC3O (stereo partly specified) |  | > 100 µM
C=C1C(=O)O[C@H]2[C@H]1CC/C(COC(=O)NCCCCNC(=O)OC/C1=C/CC[C@@]3(C)O[C@H]3[C@H]3OC(=O)C(=C)[C@@H]3CC1)=C\CC[C@@]1(C)O[C@@H]21 | 1.51 µM | 4.17 µM
COc1ccc(-c2cc(-c3cc(C)cc(Br)c3O)no2)cc1 |  | 34 µM
COc1ccc(-c2nc3ccccn3c2/C=C/C(=O)c2cc(OC)c(OC)c(OC)c2)cc1OC | 3.01 µM | > 100 µM
COc1c(C(=O)/C=C/c2ccccc2)c(O)cc2occc12 | 10.5 µM | 32.4 µM
CC(C)c1c(O)c(O)c2c(c1O)C(=O)C(O)=C1C(C)(C)CCC[C@@]12C |  | 16.5 µM
NS(=O)(=O)c1ccc(-c2ccc3c(NC(=O)C4CC4)n[nH]c3c2)cc1 | > 25 µM | > 25 µM

SMILES | GI50 | TGI
COc1cc2c3c(n(CCCN)c(=O)c2cc1OC)-c1ccc(C#N)cc1C3=O | 13.2 µM | 34.9 µM
C=CCCCCC/C=C\[C@@H](O)C#CC#C/C=C/CO | > 100 µM | > 100 µM
CCCCC(CC)COC(=O)C[N+](C)(C)CCOC(c1ccccc1)c1ccccc1 (stereo unspecified) | 1.91 µM | 4.44 µM
N#Cc1cc(-c2cc3ccccc3o2)oc1N | 3.89 µM | 59 µM
Cc1cc(C(=O)Nc2ccc3cc(CN4CCOCC4)ccc3n2)c(C)n1-c1ccccc1 | 0.393 µM | 4.56 µM
O=S(=O)(c1ccc(NC(=S)NC23CC4CC(CC(C4)C2)C3)cc1)N1CCCCC1 | 3.28 µM | > 100 µM
Cc1cc(NC(=S)SCc2ccc(F)cc2)c([N+](=O)[O-])cc1C |  | > 100 µM
COc1ccc(C(=O)c2cc(C)c(OC)c(C)c2)cc1OC(=O)CCl | 10.5 µM | 67.9 µM
NC(=O)c1cc(Cl)ccc1NC(=O)/C=C/c1ccccc1 | 4.8 µM | > 100 µM
CC1=CC(=O)C=CC1=O | 11.9 µM and 2.54 µM | 36.1 µM and 6.78 µM
CCCC(CCC)NCC(O)c1cc(-c2ccc(C(F)(F)F)cc2)nc(C(F)(F)F)c1 (stereo unspecified) | 1.7 µM | 3.3 µM
CC12OC(C(=O)C13CC3)C1C(=O)c3ccc4c(ccc5ccccc54)c3C(=O)C12 (stereo unspecified) | 25.7 µM | 98.9 µM
Cc1cc(C)c(NC(=O)c2sc3nc4c(cc3c2N)C(=O)CCC4)c(C)c1 | 5 µM | > 63.5 µM
CN(C)CCNc1ccc(CO)c2oc3ccc(O)cc3c(=O)c12 |  | 59.4 µM
Cc1ccc(NC(=O)c2cccc(C(C)(C)C#N)c2)cc1Nc1ccc2ncn(C)c(=O)c2c1 | 3.66 µM | > 100 µM
Cc1cc2ncnn2cc1Nc1ncc2c(n1)n(C1CCOCC1)c(=O)n2C | 1.41 µM | 6.42 µM
Cc1ccc(N=C/C=C(\Nc2ccc(C)cc2)c2ccc(Cl)cc2)cc1 | > 100 µM | > 100 µM
COc1ccc(C(=O)c2cc(C)c(OC)c(C)c2)c(OC)c1O | 5.95 µM | > 100 µM
Nc1ccccc1C#C/C=C\C#Cc1ccccc1N | 26.9 µM | > 100 µM
O=C(Nc1n[nH]c2cc(-c3ccccc3)ccc12)C1CC1 | 17.8 µM | > 25 µM
